Laboratory results from ChEMBL document CHEMBL1132849, “Amidinohydrazones as guanidine bioisosteres: application to a new class of potent, selective and orally bioavailable, non-amide-based small-molecule thrombin inhibitors” (Bioorg Med Chem Lett, 2000).
Several values for one entry are separate records, joined by “and”; a condition that tells them apart may be missing. Equal values may be shown once.

What was measured:
[1] = target: Prothrombin (Homo sapiens, UniProt P00734); assay: Inhibitory constant against human alpha thrombin
[2] = Oral bioavailability in dog; type: ADME, organism-based, Canis lupus familiaris; details: in vivo
[3] = pKa was evaluated; type: physicochemical
[4] = The compound was tested for time taken to decrease, half of its initial concentration in dog plasma.; type: ADME, organism-based, Canis lupus familiaris
[5] = The compound was tested for clearance in dog plasma.; type: ADME, organism-based, Canis lupus familiaris
[6] = The compound was tested for maximum concentration ( Cmax ) in dog plasma.; type: ADME, organism-based, Canis lupus familiaris
[7] = species on record: Canis familiaris; assay: Vss was determined; type: ADME, organism-based, Canis lupus familiaris; details: dog, in vivo
[8] = system: Canis familiaris; assay: Time at which maximal (4 fold increase) prolong clotting time was observed after peroral administration of compound (30 mg/kg); type: functional, Canis lupus familiaris
[9] = system: Canis familiaris; assay: Anticoagulation (1.2 fold increase) after peroral administration of compound (30 mg/kg); type: functional, Canis lupus familiaris
[10] = system: Canis familiaris; assay: Anticoagulation (1.6 fold increase) after peroral administration of compound (30 mg/kg); type: functional, Canis lupus familiaris
[11] = Percent oral bioavailability of perorally administered compound (30 mg/kg) was tested; type: ADME, organism-based; details: in vivo, read-out: Bioavailabiility
[12] = Partition coefficient ( LogP) of the compound; type: physicochemical; details: octanol/water
[13] = species on record: Canis familiaris; assay: Vss in dog; type: ADME, organism-based, Canis lupus familiaris; details: in vivo
[14] = Dose at which bioavailability of intravenously administered compound was tested in rabbit; type: ADME, organism-based, Oryctolagus cuniculus; details: in vivo, iv
[15] = Dose at which bioavailability of perorally administered compound was tested in rabbit; type: ADME, organism-based, Oryctolagus cuniculus; details: in vivo, po
[16] = The compound was tested for its bioavailability in rabbit (by oral dosage).; type: ADME, organism-based, Oryctolagus cuniculus; details: in vivo
[17] = species on record: Canis familiaris; assay: The compound was tested for clotting time thrombin(TCT); type: functional, Canis lupus familiaris
[18] = system: Canis familiaris; assay: Time at which maximal (1.6 fold increase) prolong clotting time was observed after peroral administration of compound (30 mg/kg) in dog; type: functional, Canis lupus familiaris
[19] = system: Oryctolagus cuniculus; assay: Prolongation of thrombin clotting time (to 1.9x over control), 60 min after peroral administration (30 mg/kg); type: functional
[20] = system: Oryctolagus cuniculus; assay: Prolongation of thrombin clotting time (to 1.9x over control), after peroral administration (30 mg/kg); type: functional
[21] = Percent oral bioavailability of intravenously administered compound (6 mg/kg) was tested in dog; type: ADME, organism-based, Canis lupus familiaris; details: in vivo, intravenous, read-out: Bioavailabiility

Compound COc1cc(CCC/C=N/N=C(N)N)cc(OS(=O)(=O)c2ccccc2Cl)c1 has a Ki [1] of 990 nM.
In the case of Cc1cc(OCC/C=N/N=C(N)N)cc(OS(=O)(=O)c2ccccc2S(C)(=O)=O)c1, the Ki [1] is reported as 20 nM.
COc1ccccc1S(=O)(=O)Oc1cc(C)cc(OCC/C=N/N=C(N)N)c1 showed a Ki [1] of 11 nM.
Cc1cc(OCC/C=N/N=C(N)N)cc(OS(=O)(=O)c2ccccc2C#N)c1 gave a bioavailability [2] of 21%, a pKa [3] of 8.84 and a half-life [4] of 19 h. The clearance [5] was 79 mL/min/kg, the Cmax [6] was 900 nM and the Vss [7] was 23 k. The Time [8] was 1 h, the Time [9] was 24 h and the Time [10] was 8 h. The bioavailability [11] was 21% and the logP [12] was 2.11.
Cc1cc(OCC/C=N/N=C(N)N)cc(OS(=O)(=O)c2cccc(Cl)c2Cl)c1 showed a Ki [1] of 9.4 nM.
Work on Cc1cc(OCC/C=N/N=C(N)N)cc(OS(=O)(=O)c2cccnc2)c1 yielded a Ki [1] of 36 nM.
Cc1cc(OCC/C=N/N=C(N)N)cc(OS(=O)(=O)c2cccc3ccccc23)c1 gave a Ki [1] of 44 nM.
Compound Cc1cc(OCC/C=N/N=C(N)N)cc(OS(=O)(=O)c2ccccc2OC(F)(F)F)c1 has a Ki [1] of 11 nM.
With Cc1cc(OCC2(/C=N/N=C(N)N)CC2)cc(OS(=O)(=O)c2ccccc2C#N)c1 the Ki [1] was 40 nM.
For Cc1cc(OCC/C=N/N=C(N)N)cc(OCc2ccccc2C(F)(F)F)c1, the Ki [1] was 420 nM.
In the case of Cc1cc(OCC/C=N/N=C(N)N)cc(OS(=O)(=O)c2ccccc2Cl)c1, the bioavailability [2] is reported as 23%, the pKa [3] is reported as 8.71 and the half-life [4] is reported as 21 h. It also gave a clearance [5] of 39 mL/min/kg, a Cmax [6] of 1800 nM and a Vss [13] of 3.5 k. For the same compound, the Dose [14] was 6 mg/kg, the Dose [15] was 30 mg/kg and the bioavailability [16] was 60%. For the same compound, the TCT [17] was 34 s and 21 s, the Time [18] was 2 h and the TCT [19] was 50 s. It also gave a TCT [20] of 26 s, a bioavailability [21] of 23% and a logP [12] of 2.34.
Compound COc1ccccc1S(=O)(=O)Oc1cc(C)cc(OC/C=N/N=C(N)N)c1 has a Ki [1] of over 1000 nM.
With Cc1cc(OCC/C=N/N=C(N)N)cc(OS(=O)(=O)c2cccc(C)c2)c1 the Ki [1] was 6 nM.
